Assay results from patent US20110105397A1, “METHOD FOR TREATING HEART FAILURE WITH STRESSCOPIN-LIKE PEPTIDES” (priority 2009, published 2011).

What was measured:
[1] = test system: anaesthetized mongrel dogs; assay: Hemodynamic, angiographic, echocardiographic profile in anaesthetized healthy dogs, 30-minute IV infusion; format: in vivo, dog; conditions: for CO (Cardiac output) / HR (Heart rate) / LV + dP/dt (LV contractility) / LVEDA (LV end diastolic area) / LVEDV (LV end diastolic volume) / LVEF (LV ejection fraction) / LVESA (LV end systolic area) / LVESV (LV end systolic volume) / LVFAS (LV fractional area of shortening) / PSAP (Peak systolic aortic pressure) / SV (Stroke volume): 30 min
Method: The effects of h-SCP (SEQ ID NO: 1) on cardiovascular function were also assessed in anaesthetized mongrel dogs following intravenous bolus and 30-minute infusions. Hemodynamic and left ventricular systolic and diastolic function was evaluated using conventional hemodynamic, angiographic, echocardiographic, and radiographic methods with the results summarized in Table 16.
The findings described above were further examined in a study, in which h-SCP (SEQ ID NO:1) was infused over a 30-minute period at the same total doses that were administered by bolus as described above with the results presented in Table 17 and FIGS. 11A & B. As in the case of bolus dosing h-SCP (SEQ ID NO:1) elicited dose- (infusion-) dependent changes in blood pressure, left ventricular systolic and diastolic function, and heart rate. However, at the lower range of the dose- (infusion-) response curve there was a pronounced lessening in the positive chronotropic and blood pressure response with marked and significant increase in cardiac function measured as increased CO and LVEF. […] The corresponding plasma concentration of h-SCP (SEQ ID NO:1) was 4,577 pg/mL.

[2] = Nonclinical pharmacokinetics in dogs; design: species or system dog; conditions: in vivo; for Cmax: read-out: Cmax
Method: (§1) A sandwich immunoassay was developed using an affinity purified goat polyclonal antibody, specific to h-SCP that was pre-coated onto a microplate with integrated electrodes. h-SCP molecules present in the sample will bind to the capture polyclonal antibody coated on the plate. After washing away any unbound substances, a sulfo-tagged mouse monoclonal anti-h-SCP antibody was added. This conjugated antibody will bind to the h-SCP molecules captured on the microplate and the quantity of analyte was determined by electrochemiluminescence. The amount of signal generated is directly proportional to the h-SCP concentration in the sample or standard. The standard curve range is 3.125-1600 pg/mL with a quantifiable range from 10-800 pg/mL. A sample volume of 25 μL (in duplicate) is required for this assay. This immunoassay is specific for human and dog stresscopin and human urocortin III (h-UCN3). […] After completion of the analysis, based on a comparison of reference standards between the ELISA and HPLC method, a correction factor of 1.57 was applied to all bioanalytical data.
(§2) The nonclinical pharmacokinetics of h-SCP (SEQ ID NO:1) and pegylated stresscopin-like peptides were studied in rats, dogs, and cynomolgus monkeys (cyno). Nonclinical pharmacokinetic studies focused on characterization of IV infusion at pharmacologically relevant dose levels, supplemented with IV and SC bolus and toxicokinetic analysis.

[3] = Nonclinical pharmacokinetics in cynomolgus monkeys; conditions: cynomolgus monkey, in vivo
Method: as §1, §2

[4] = male, dog IV infusion 3 hours, M, 3.33 ng/kg/min
[5] = male, dog IV infusion 3 hours, M, 8.33 ng/kg/min
[6] = male, dog IV infusion 3 hours, M, 16.7 ng/kg/min
[7] = male, dog IV infusion 3 hours, M, 33.3 ng/kg/min
[8] = female, cyno IV infusion 3 hours, F, 16.7 ng/kg/min
[9] = female, cyno IV infusion 3 hours, F, 33.3 ng/kg/min
[10] = female, cyno IV infusion 3 hours, F, 100 ng/kg/min
[11] = male, cyno IV infusion 3 hours, M, 16.7 ng/kg/min
[12] = male, cyno IV infusion 3 hours, M, 33.3 ng/kg/min
[13] = male, cyno IV infusion 3 hours, M, 100 ng/kg/min

H-TKFTLSLDVPTNIMNLLFNIAKAKNLRAQAAANAHLMAQI-NH2 [SEQ ID NO: 1, TKFTLSLDVPTNIMNLLFNIAKAKNLRAQAAANAHLMAQI-NH2]
CO (Cardiac output) ([1]; IV infusion 22 ng/kg/min): 2.32 L/min | HR (Heart rate) ([1]; IV infusion 22 ng/kg/min): 81.2 beats/min | LV + dP/dt (LV contractility) ([1]; IV infusion 22 ng/kg/min): 1598 mmHg/sec | LVEDA (LV end diastolic area) ([1]; IV infusion 22 ng/kg/min): 12.2 cm^2 | LVEDV (LV end diastolic volume) ([1]; IV infusion 22 ng/kg/min): 53.0 mL | LVEF (LV ejection fraction) ([1]; IV infusion 22 ng/kg/min): 54.0% | LVESA (LV end systolic area) ([1]; IV infusion 22 ng/kg/min): 6.3 cm^2 | LVESV (LV end systolic volume) ([1]; IV infusion 22 ng/kg/min): 24.5 mL | LVFAS (LV fractional area of shortening) ([1]; IV infusion 22 ng/kg/min): 49% | PSAP (Peak systolic aortic pressure) ([1]; IV infusion 22 ng/kg/min): 95.0 mmHg | SV (Stroke volume) ([1]; IV infusion 22 ng/kg/min): 28.5 mL | CO (Cardiac output) ([1]; IV infusion 43 ng/kg/min): 2.82 L/min | HR (Heart rate) ([1]; IV infusion 43 ng/kg/min): 88.7 beats/min | LV + dP/dt (LV contractility) ([1]; IV infusion 43 ng/kg/min): 1875 mmHg/sec | LVEDA (LV end diastolic area) ([1]; IV infusion 43 ng/kg/min): 11.9 cm^2 | LVEDV (LV end diastolic volume) ([1]; IV infusion 43 ng/kg/min): 55.2 mL | LVEF (LV ejection fraction) ([1]; IV infusion 43 ng/kg/min): 57.5% | LVESA (LV end systolic area) ([1]; IV infusion 43 ng/kg/min): 5.8 cm^2 | LVESV (LV end systolic volume) ([1]; IV infusion 43 ng/kg/min): 23.5 mL | LVFAS (LV fractional area of shortening) ([1]; IV infusion 43 ng/kg/min): 51.5% | PSAP (Peak systolic aortic pressure) ([1]; IV infusion 43 ng/kg/min): 95.2 mmHg | SV (Stroke volume) ([1]; IV infusion 43 ng/kg/min): 31.7 mL | CO (Cardiac output) ([1]; IV infusion 86 ng/kg/min): 2.81 L/min | HR (Heart rate) ([1]; IV infusion 86 ng/kg/min): 91.0 beats/min | LV + dP/dt (LV contractility) ([1]; IV infusion 86 ng/kg/min): 1622 mmHg/sec | LVEDA (LV end diastolic area) ([1]; IV infusion 86 ng/kg/min): 11.8 cm^2 | LVEDV (LV end diastolic volume) ([1]; IV infusion 86 ng/kg/min): 54.2 mL | LVEF (LV ejection fraction) ([1]; IV infusion 86 ng/kg/min): 56.5% | LVESA (LV end systolic area) ([1]; IV infusion 86 ng/kg/min): 5.9 cm^2 | LVESV (LV end systolic volume) ([1]; IV infusion 86 ng/kg/min): 23.5 mL | LVFAS (LV fractional area of shortening) ([1]; IV infusion 86 ng/kg/min): 50.0% | PSAP (Peak systolic aortic pressure) ([1]; IV infusion 86 ng/kg/min): 91.7 mmHg | SV (Stroke volume) ([1]; IV infusion 86 ng/kg/min): 30.7 mL | CO (Cardiac output) ([1]; IV infusion 146 ng/kg/min): 2.97 L/min | HR (Heart rate) ([1]; IV infusion 146 ng/kg/min): 102.5 beats/min | LV + dP/dt (LV contractility) ([1]; IV infusion 146 ng/kg/min): 1594 mmHg/sec | LVEDA (LV end diastolic area) ([1]; IV infusion 146 ng/kg/min): 11.5 cm^2 | LVEDV (LV end diastolic volume) ([1]; IV infusion 146 ng/kg/min): 49.5 mL | LVEF (LV ejection fraction) ([1]; IV infusion 146 ng/kg/min): 58.2% | LVESA (LV end systolic area) ([1]; IV infusion 146 ng/kg/min): 5.6 cm^2 | LVESV (LV end systolic volume) ([1]; IV infusion 146 ng/kg/min): 20.7 mL | LVFAS (LV fractional area of shortening) ([1]; IV infusion 146 ng/kg/min): 51% | PSAP (Peak systolic aortic pressure) ([1]; IV infusion 146 ng/kg/min): 90.0 mmHg | SV (Stroke volume) ([1]; IV infusion 146 ng/kg/min): 28.7 mL | CO (Cardiac output) ([1]; IV infusion 437 ng/kg/min): 3.25 L/min | LV + dP/dt (LV contractility) ([1]; IV infusion 437 ng/kg/min): 1657 mmHg/sec | LVEDA (LV end diastolic area) ([1]; IV infusion 437 ng/kg/min): 10.8 cm^2 | LVEDV (LV end diastolic volume) ([1]; IV infusion 437 ng/kg/min): 46.0 mL | LVEF (LV ejection fraction) ([1]; IV infusion 437 ng/kg/min): 60.7% | LVESA (LV end systolic area) ([1]; IV infusion 437 ng/kg/min): 5.1 cm^2 | LVESV (LV end systolic volume) ([1]; IV infusion 437 ng/kg/min): 18.2 mL | LVFAS (LV fractional area of shortening) ([1]; IV infusion 437 ng/kg/min): 53.5% | PSAP (Peak systolic aortic pressure) ([1]; IV infusion 437 ng/kg/min): 89.5 mmHg | SV (Stroke volume) ([1]; IV infusion 437 ng/kg/min): 28 mL | HR (Heart rate) ([1]; IV infusion 437 ng/kg/min, junctional tachycardia): 117.3 beats/min | minimum anticipated biological effect level (MABEL) ([1]; healthy dogs): 22 ng/kg/min | infusion rate for minimal effect ([1]; healthy dogs, 30-minute infusion): 43 ng/kg/min | half-life ([2]; dog, dogs, two-compartment analysis, read-out: alpha-phase half-life (t1/2 alpha)): 10 to 20 min | half-life ([2]; dog, dogs, read-out: terminal phase half-life (converted)): ~60 min | time to apparent steady-state plasma concentration after initiation of infusion ([2]; dog, iv): ≤ 1 h | clearance ([2]; dog, dogs, 3.3 to 33.3 ng/kg/min, read-out: plasma clearance): ~4 mL/min/kg | half-life ([2]; male, dog, iv, 33.3 ng/kg/min, dog IV infusion 3 hours, M, 33.3 ng/kg/min, read-out: t1/2 alpha): 13.7 min | half-life ([2]; male, dog, iv, 33.3 ng/kg/min, dog IV infusion 3 hours, M, 33.3 ng/kg/min, read-out: t1/2 terminal): 65.3 min | Vd ([2]; male, dog, iv, Vss): 0.216 L/kg | half-life ([2]; male, dog, iv, t1/2 alpha): 15.9 min | half-life ([2]; male, dog, iv, t1/2 terminal): 59.6 min | AUC(0-inf) [2, 4]: 2.34 ng·h/mL | clearance ([2]; male, dog IV infusion 3 hours, M, 3.33 ng/kg/min, read-out: CL): 4.28 mL/min/kg | Cmax [2, 4]: 0.814 ng/mL | AUC(0-inf) [2, 5]: 6.46 ng·h/mL | clearance ([2]; male, dog IV infusion 3 hours, M, 8.33 ng/kg/min, read-out: CL): 3.87 mL/min/kg | Cmax [2, 5]: 2.38 ng/mL | AUC(0-inf) [2, 6]: 12.8 ng·h/mL | clearance ([2]; male, dog IV infusion 3 hours, M, 16.7 ng/kg/min, read-out: CL): 3.99 mL/min/kg | Cmax [2, 6]: 5.05 ng/mL | AUC(0-inf) [2, 7]: 26.4 ng·h/mL | clearance ([2]; male, dog IV infusion 3 hours, M, 33.3 ng/kg/min, read-out: CL): 3.95 mL/min/kg | Cmax [2, 7]: 10 ng/mL | Vd ([2]; male, dog IV infusion 3 hours, M, 33.3 ng/kg/min, read-out: Vss): 0.161 L/kg | time to apparent steady-state plasma concentration after initiation of infusion ([3]; iv): ≤ 1 h | half-life ([3]; monkeys, two-compartment analysis, read-out: alpha-phase half-life (t1/2 alpha)): < 5 min | clearance ([3]; cynomolgus monkeys, 16.7 to 100 ng/kg/min, read-out: clearance values (CL)): 30 to 40 mL/min/kg | Vss ([3]; female, iv): 0.921 L/kg | half-life ([3]; female, iv, 33.3 ng/kg/min, cyno IV infusion 3 hours, F, 33.3 ng/kg/min, read-out: t1/2 alpha): 4 min | half-life ([3]; female, iv, 33.3 ng/kg/min, cyno IV infusion 3 hours, F, 33.3 ng/kg/min, read-out: t1/2 terminal): 14.8 min | Vd ([3]; female, iv, Vss): 0.848 L/kg | half-life ([3]; female, iv, t1/2 alpha): 3.1 min | AUC(0-inf) [3, 8]: 1.31 ng·h/mL | Cmax [3, 8]: 0.613 ng/mL | clearance ([3]; female, cyno IV infusion 3 hours, F, 16.7 ng/kg/min, read-out: CL): 39.7 mL/min/kg | AUC(0-inf) [3, 9]: 2.34 ng·h/mL | Cmax [3, 9]: 0.958 ng/mL | clearance ([3]; female, cyno IV infusion 3 hours, F, 33.3 ng/kg/min, read-out: CL): 42.9 mL/min/kg | Vd ([3]; female, cyno IV infusion 3 hours, F, 33.3 ng/kg/min, read-out: Vss): 0.931 L/kg | AUC(0-inf) [3, 10]: 7.67 ng·h/mL | Cmax [3, 10]: 3.16 ng/mL | clearance ([3]; female, cyno IV infusion 3 hours, F, 100 ng/kg/min, read-out: CL): 39.1 mL/min/kg | Vss ([3]; male, iv): 0.899 L/kg | half-life ([3]; male, iv, 33.3 ng/kg/min, cyno IV infusion 3 hours, M, 33.3 ng/kg/min, read-out: t1/2 alpha): 3.7 min | half-life ([3]; male, iv, 33.3 ng/kg/min, cyno IV infusion 3 hours, M, 33.3 ng/kg/min, read-out: t1/2 terminal): 26 min | Vd ([3]; male, iv, Vss): 0.788 L/kg | half-life ([3]; male, iv, t1/2 alpha): 2.9 min | AUC(0-inf) [3, 11]: 1.73 ng·h/mL | Cmax [3, 11]: 0.873 ng/mL | clearance ([3]; male, cyno IV infusion 3 hours, M, 16.7 ng/kg/min, read-out: CL): 30.2 mL/min/kg | AUC(0-inf) [3, 12]: 3.47 ng·h/mL | Cmax [3, 12]: 1.48 ng/mL | clearance ([3]; male, cyno IV infusion 3 hours, M, 33.3 ng/kg/min, read-out: CL): 29.2 mL/min/kg | Vd ([3]; male, cyno IV infusion 3 hours, M, 33.3 ng/kg/min, read-out: Vss): 0.611 L/kg | AUC(0-inf) [3, 13]: 9.79 ng·h/mL | Cmax [3, 13]: 4.45 ng/mL | clearance ([3]; male, cyno IV infusion 3 hours, M, 100 ng/kg/min, read-out: CL): 30.7 mL/min/kg
